Measurements taken from patent publication US8445481B2, “Scaffold-diversified pyrrolidinone derivatives and their use” (The University of Chicago, priority 2007, dated 2013).

Key:
U-87MG glioma cells = experiment: Combination of respiration suppressor and glycolysis inhibitor, cytotoxicity; assay type: cell-based; conditions: in combination with leucascandrolide A
Protocol: (§1) Since respiration and glycolysis are tightly coupled in eukaryotic cells, a combination of suppressors of respiration with inhibitors of glycolysis were tested for cytotoxic phenotype.

cells = experiment: Cell cycle arrest; assay type: cell-based
A549 cells [1] = experiment: Cancer cell proliferation, A549; assay type: cell-based
Protocol: as §1

glycolysis = experiment: Lactate production in cell culture medium; assay type: cell-based
Protocol: (§2) A high-throughput assay was developed for identification of new inhibitors of glycolysis. The effect of the pyrrolidinone library on intracellular ATP level of A549 cells was tested in either the presence or absence of antimycin A (inhibitor of mitochondrial electron-transport chain). […] Initial hits were further verified by evaluating their effects on lactate production. Since lactate is a toxic end-product of glycolysis effluxed to the intercellular space, treatment of cells with glycolytic inhibitors should lead to decreased levels of lactate in cell culture medium.

CHO-K1 cells = experiment: Cell proliferation, CHO-K1; assay type: cell-based
Protocol: as §1

A549 cells [2] = experiment: Intracellular ATP level of A549 cells with or without antimycin A; assay type: cell-based; conditions: presence versus absence of antimycin A (10 nM)
Protocol: as §2

tumor cells = experiment: Sensitisation of tumor cells to 2-deoxyglucose; assay type: cell-based
Protocol: as §1

[3] = system: cellular glucose consumption; experiment: Cellular glucose consumption; assay type: cell-based
hACC2 = molecular target: T1, hACC2 (Homo sapiens, UniProt O00763); conditions: reference ACC inhibitor; cited from earlier work
T1 construct: expressed in transfected cells; host or cells: Saccharomyces cerevisiae
T1 sequence (O00763 whole entry): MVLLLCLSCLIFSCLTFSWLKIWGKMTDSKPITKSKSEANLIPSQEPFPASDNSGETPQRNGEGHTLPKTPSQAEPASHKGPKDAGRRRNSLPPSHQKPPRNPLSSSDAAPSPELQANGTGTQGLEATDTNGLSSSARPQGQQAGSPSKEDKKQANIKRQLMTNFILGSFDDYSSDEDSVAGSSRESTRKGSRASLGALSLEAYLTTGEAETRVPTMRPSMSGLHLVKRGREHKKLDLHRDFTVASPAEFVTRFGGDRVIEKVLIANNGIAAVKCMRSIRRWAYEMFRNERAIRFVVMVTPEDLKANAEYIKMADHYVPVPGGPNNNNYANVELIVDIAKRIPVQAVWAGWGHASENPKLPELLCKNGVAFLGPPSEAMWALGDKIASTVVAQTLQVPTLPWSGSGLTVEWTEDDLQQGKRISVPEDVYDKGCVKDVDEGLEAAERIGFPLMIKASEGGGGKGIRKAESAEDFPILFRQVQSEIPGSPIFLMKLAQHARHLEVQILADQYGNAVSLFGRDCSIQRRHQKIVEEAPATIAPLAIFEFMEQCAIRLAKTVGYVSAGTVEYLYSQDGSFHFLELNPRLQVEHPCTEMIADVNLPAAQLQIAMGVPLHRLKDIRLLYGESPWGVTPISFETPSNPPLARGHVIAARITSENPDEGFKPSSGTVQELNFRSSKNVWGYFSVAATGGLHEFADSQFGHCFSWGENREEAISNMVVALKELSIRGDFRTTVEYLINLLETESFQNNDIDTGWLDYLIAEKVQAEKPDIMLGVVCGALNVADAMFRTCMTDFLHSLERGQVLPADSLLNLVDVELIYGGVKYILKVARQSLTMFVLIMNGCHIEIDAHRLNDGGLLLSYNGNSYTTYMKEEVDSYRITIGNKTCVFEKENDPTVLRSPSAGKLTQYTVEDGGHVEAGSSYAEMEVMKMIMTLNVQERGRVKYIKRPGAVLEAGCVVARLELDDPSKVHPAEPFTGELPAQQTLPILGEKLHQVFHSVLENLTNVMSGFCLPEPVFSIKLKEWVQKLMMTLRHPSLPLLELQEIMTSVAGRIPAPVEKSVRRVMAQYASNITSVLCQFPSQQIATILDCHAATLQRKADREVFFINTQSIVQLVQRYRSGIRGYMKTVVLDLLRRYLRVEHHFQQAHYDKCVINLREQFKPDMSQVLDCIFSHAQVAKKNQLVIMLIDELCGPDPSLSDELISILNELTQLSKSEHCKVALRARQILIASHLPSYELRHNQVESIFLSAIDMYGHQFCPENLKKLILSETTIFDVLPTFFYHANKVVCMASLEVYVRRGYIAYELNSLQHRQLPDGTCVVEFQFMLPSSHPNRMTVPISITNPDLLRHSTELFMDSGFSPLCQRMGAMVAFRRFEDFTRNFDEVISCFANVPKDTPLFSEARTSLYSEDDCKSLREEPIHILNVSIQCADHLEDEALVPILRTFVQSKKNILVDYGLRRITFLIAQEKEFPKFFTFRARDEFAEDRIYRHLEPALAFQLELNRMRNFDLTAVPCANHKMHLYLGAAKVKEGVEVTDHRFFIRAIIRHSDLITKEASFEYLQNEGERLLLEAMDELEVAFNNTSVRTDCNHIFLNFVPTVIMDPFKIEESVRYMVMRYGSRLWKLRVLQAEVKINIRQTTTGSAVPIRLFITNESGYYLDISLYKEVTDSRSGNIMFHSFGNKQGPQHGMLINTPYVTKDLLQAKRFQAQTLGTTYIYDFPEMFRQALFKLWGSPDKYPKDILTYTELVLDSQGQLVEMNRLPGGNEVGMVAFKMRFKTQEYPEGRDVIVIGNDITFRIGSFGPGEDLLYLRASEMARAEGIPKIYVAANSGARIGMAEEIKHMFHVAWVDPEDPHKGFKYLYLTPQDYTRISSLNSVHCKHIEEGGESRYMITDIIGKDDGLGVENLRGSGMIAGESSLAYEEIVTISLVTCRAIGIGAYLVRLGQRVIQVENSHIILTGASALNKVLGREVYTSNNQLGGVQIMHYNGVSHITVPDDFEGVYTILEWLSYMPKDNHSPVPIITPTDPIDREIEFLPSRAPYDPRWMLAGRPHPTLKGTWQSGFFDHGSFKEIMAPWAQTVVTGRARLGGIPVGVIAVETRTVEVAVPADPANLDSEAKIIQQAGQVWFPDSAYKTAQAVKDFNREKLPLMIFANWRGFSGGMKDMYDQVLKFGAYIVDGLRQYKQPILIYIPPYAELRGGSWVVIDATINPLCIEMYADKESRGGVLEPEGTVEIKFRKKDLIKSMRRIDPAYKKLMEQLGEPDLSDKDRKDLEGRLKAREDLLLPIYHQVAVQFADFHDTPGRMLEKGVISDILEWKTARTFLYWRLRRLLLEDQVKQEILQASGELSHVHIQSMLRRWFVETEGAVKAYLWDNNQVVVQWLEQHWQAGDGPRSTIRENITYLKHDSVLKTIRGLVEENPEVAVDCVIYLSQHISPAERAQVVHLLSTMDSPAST

caspase-3/7 = experiment: Time-dependence of caspase-3/7 activation; assay type: cell-based; conditions: HL-60 cells, time after treatment

Compound | cell cycle arrest (cells) | effect on cancer cell proliferation (A549 cells [1]) | lactate production (glycolysis) | effect on cell proliferation (CHO-K1 cells) | suppression of ATP production (A549 cells [2]) | also measured
COC(=O)[C@@]12CCCCC=C1N(CCC1=CCCCC1)C(=O)[C@H]2CC(=O)NCc1ccc(OC)c(OC)c1 [Example P8A7] | arrested cells in G1 phase | cytostatic effect | inhibited lactate production | cytostatic effect | suppressed ATP production more efficiently in the presence of antimycin A | cell death on combined treatment (U-87MG glioma cells): severe cell death
rhodamine 123 | – | – | – | – | – | sensitisation of tumor cells to 2-deoxyglucose (tumor cells): hypersensitized tumor cells to treatment with 2-deoxyglucose
COC(=O)[C@@]12CCCCC/C=C\1N(Cc1cccc3ccccc13)C(=O)[C@H]2CC(=O)N1CCN(C(=O)c2ccco2)CC1 [Example P9E11] | arrested cells in G1 phase | cytostatic effect | inhibited lactate production | cytostatic effect | suppressed ATP production more efficiently in the presence of antimycin A | cellular glucose consumption [3]: rapidly inhibited cellular glucose consumption; activity profile compared with cytochalasin B ([3]; cytochalasin B is an established inhibitor of glucose transport): essentially identical activity profile to cytochalasin B
CC(C#Cc1cnc(Oc2ccc(Oc3ccccc3)cc2)s1)N(O)C(N)=O (stereo not shown) [Example A-80040] | – | – | – | – | – | ACC2 specificity (hACC2): certain level of ACC2 specificity
CN[C@@H]1C[C@H]2O[C@@](C)([C@@H]1OC)n1c3ccccc3c3c4c(c5c6ccccc6n2c5c31)C(=O)NC4 [staurosporine] | – | – | – | – | – | caspase-3/7 activation over time (caspase-3/7): increased activity between 3 and 6 hours after treatment, after which activity decreased
